According to PMC5466188 (Biotechnology Reports, 2014):

target: Acetylcholinesterase (AChE, from electric eel) (Electrophorus electricus, UniProt O42275); assay: In vitro AChE inhibition assay; assay type: biochemical
Sequence (O42275 24-633): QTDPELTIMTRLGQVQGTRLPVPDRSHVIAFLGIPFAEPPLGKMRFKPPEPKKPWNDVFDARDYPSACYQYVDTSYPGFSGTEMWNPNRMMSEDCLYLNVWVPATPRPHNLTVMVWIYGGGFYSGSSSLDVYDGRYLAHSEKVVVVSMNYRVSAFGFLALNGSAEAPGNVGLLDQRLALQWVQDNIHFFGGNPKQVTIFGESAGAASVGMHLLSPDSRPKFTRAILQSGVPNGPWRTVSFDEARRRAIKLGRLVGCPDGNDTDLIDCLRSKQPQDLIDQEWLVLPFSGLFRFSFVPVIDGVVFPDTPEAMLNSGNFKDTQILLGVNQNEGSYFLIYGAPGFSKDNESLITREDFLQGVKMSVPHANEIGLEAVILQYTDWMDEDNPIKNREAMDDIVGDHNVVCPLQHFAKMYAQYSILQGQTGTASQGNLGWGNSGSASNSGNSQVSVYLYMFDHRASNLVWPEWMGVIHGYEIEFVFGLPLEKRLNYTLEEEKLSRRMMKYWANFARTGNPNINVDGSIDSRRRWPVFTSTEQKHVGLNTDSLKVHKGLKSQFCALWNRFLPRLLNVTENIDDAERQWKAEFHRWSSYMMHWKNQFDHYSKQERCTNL

Compound | IC50 [nM]
CC1=C(C(=O)NC(=O)c2cnccn2)C(c2ccncc2)NC(=S)N1 (stereo not drawn) [Compound 4l, 6-Methyl-N-(pyrazin-2-ylcarbonyl) -4-(pyridin-4-yl) -2-thioxo-1,2,3,4-tetrahydropyrimidine-5-carboxamide] | 110 ± 10
CC1=C(C(=O)NC(=O)c2cnccn2)C(c2ccncc2)NC(=O)N1 (stereo not drawn) [Compound 4k, 6-Methyl-2-oxo-N-(pyrazin-2-ylcarbonyl)-4-(pyridin-4-yl)-1,2,3,4-tetrahydropyrimidine-5-carboxamide] | 190 ± 10
CC1=C(C(=O)NC(=O)c2cnccn2)C(c2cccc([N+](=O)[O-])c2)NC(=S)N1 (stereo not drawn) [Compound 4d, 6-Methyl-4-(3-nitrophenyl)-N-(pyrazin-2-ylcarbonyl)-2-thioxo-1,2,3,4-tetrahydropyrimidine-5-carboxamide] | 1820 ± 10
CC1=C(C(=O)NC(=O)c2cnccn2)C(c2ccc(Cl)cc2)NC(=S)N1 (stereo not drawn) [Compound 4j, 4-(4-Chlorophenyl)-6-methyl-N-(pyrazin-2-ylcarbonyl)-2-thioxo-1,2,3,4-tetrahydropyrimidine-5-carboxamide] | 880 ± 10
CC1=C(C(=O)NC(=O)c2cnccn2)C(c2ccc(Cl)cc2)NC(=O)N1 (stereo not drawn) [Compound 4i, 4-(4-Chlorophenyl)-6-methyl-2-oxo-N-(pyrazin-2-ylcarbonyl)-1,2,3,4-tetrahydropyrimidine-5-carboxamide] | 940 ± 10
CC1=C(C(=O)NC(=O)c2cnccn2)C(c2cccc(Cl)c2)NC(=O)N1 (stereo not drawn) [Compound 4e, 4-(3-Chlorophenyl)-6-methyl-2-oxo-N-(pyrazin-2-ylcarbonyl)-1,2,3,4-tetrahydropyrimidine-5-carboxamide] | 1210 ± 10
CC1=C(C(=O)NC(=O)c2cnccn2)C(c2cccc([N+](=O)[O-])c2)NC(=O)N1 (stereo not drawn) [Compound 4c, 6-Methyl-4-(3-nitrophenyl)-2-oxo-N-(pyrazin-2-ylcarbonyl)-1,2,3,4-tetrahydropyrimidine-5-carboxamide] | 2540 ± 10
CC1=C(C(=O)NC(=O)c2cnccn2)C(c2ccc(F)cc2)NC(=O)N1 (stereo not drawn) [Compound 4g, 4-(4-Fluorophenyl)-6-methyl-2-oxo-N-(pyrazin-2-ylcarbonyl)-1,2,3,4-tetrahydropyrimidine-5-carboxamide] | 860 ± 10
CC1=C(C(=O)NC(=O)c2cnccn2)C(c2cccc(Cl)c2)NC(=S)N1 (stereo not drawn) [Compound 4f, 4-(3-Chlorophenyl)-6-methyl-N-(pyrazin-2-ylcarbonyl)-2-thioxo-1,2,3,4-tetrahydropyrimidine-5-carboxamide] | 1050 ± 10
CC1=C(C(=O)NC(=O)c2cnccn2)C(c2ccccc2)NC(=S)N1 (stereo not drawn) [Compound 4b, 6-Methyl-4-phenyl-N-(pyrazin-2-ylcarbonyl)-2-thioxo-1,2,3,4-tetrahydropyrimidine-5-carboxamide] | 5260 ± 10
CC1=C(C(=O)NC(=O)c2cnccn2)C(c2ccc(F)cc2)NC(=S)N1 (stereo not drawn) [Compound 4h, 4-(4-Fluorophenyl)-6-methyl-N-(pyrazin-2-ylcarbonyl)-2-thioxo-1,2,3,4-tetrahydropyrimidine-5-carboxamide] | 750 ± 10
CC1=C(C(=O)NC(=O)c2cnccn2)C(c2ccccc2)NC(=O)N1 (stereo not drawn) [Compound 4a, 6-Methyl-2-oxo-4-phenyl-N-(pyrazin-2-ylcarbonyl)-1,2,3,4-tetrahydropyrimidine-5-carboxamide] | 5350 ± 10
